According to patent publication US5912183A, “Peptide inhibitors of mitogenesis and motogenesis” (Pharmacia & Upjohn S.p.A., priority 1993, dated 1999):
Residues, ends and D or L forms follow the SMILES beside them.

Tests used:
[1] = target: T1, binding of p85 to HGF/SF receptor (Bos taurus, UniProt P23727); assay: Competition of phosphopeptides with p85 for association with immobilized recombinant HGF/SF receptor (in vitro kinase assay readout); parameters: species or system human; details: phosphopeptide 10 μM; p85 from Sf9 lysates; FIG. 1
T1 construct: made in house; host or cells: Sf9 insect cells (baculovirus), for both p85 and the receptor
T1 sequence (P23727 whole entry): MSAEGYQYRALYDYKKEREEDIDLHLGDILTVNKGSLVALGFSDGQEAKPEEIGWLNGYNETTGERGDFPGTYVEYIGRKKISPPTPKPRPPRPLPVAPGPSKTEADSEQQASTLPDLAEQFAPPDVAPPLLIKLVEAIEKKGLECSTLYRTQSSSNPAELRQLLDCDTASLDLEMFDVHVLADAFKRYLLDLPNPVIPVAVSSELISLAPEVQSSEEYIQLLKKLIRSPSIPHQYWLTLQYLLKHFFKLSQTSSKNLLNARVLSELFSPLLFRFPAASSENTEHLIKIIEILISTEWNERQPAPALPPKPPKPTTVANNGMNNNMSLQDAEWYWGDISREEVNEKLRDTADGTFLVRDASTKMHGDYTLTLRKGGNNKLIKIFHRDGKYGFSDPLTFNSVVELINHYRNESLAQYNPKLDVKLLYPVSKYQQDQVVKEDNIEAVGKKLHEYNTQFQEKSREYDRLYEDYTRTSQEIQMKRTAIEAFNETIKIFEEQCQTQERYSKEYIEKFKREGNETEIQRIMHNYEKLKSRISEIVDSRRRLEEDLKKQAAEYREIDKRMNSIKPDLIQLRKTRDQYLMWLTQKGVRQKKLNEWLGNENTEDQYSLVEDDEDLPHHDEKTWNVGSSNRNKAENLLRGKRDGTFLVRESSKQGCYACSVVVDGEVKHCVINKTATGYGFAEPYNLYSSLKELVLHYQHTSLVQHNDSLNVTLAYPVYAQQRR
Protocol: FIG. 1. Inhibition of binding of p85 to HGF/SF receptor by tyrosine-phosphorylated peptides. Recombinant HGF/SF receptor was purified by immunoprecipitation from baculovirus-infected Sf9 cells using a rabbit polyclonal antiserum and phosphorylated with cold ATP. Lysates of Sf9 cells expressing p85 were pre-incubated with each of the phosphopeptides (10 μM). The lysates were then allowed to associate with immobilized recombinant HGF/SF receptors. Following association the complex was washed and receptor-bound p85 was detected by an in vitro kinase assay, as described in Materials and Methods of Example 4. The phosphopeptides are identified by the number of the amino terminal tyrosine.
FIG. 2. Inhibition of binding of p85 to HGF/SF receptor with different concentrations of tyrosine-phosphorylated peptides. The phosphopeptides which efficiently out-competed p85 binding to the HGF/SF receptor (FIG. 1) were used at increasing concentrations (10 nM, 100 nM, 1 μM from left to right) to define their relative affinities for p85. Conditions of the experiment were as in FIG. 1. Phosphopeptide 1365 was used as a negative control for p85 interaction.
In vitro association experiments. Sf9 cells expressing the recombinant HGF/SF receptor (approximately 4×10^6 cells/point) were lysed 36 hours after infection in buffer A (10 mM Tris-HCl buffer pH 7.5, 10% glycerol, 1% Triton X-100, 150 mM NaCl, 5 mM EDTA), supplemented with 0.2 mM phenyl-methylsulfonyl fluoride, 1 μg/ml leupeptin, 0.1 TIU/ml aprotinin and 1 μg/ml pepstatin. Lysates were clarified at 15,000×g at 4° C. for 15 minutes and the supernatants immunoprecipitated after 2 hours incubation with anti-Met antibodies coupled to Protein A-Sepharose. Immunocomplexes were washed three times with buffer A, once with buffer B (10 mM Tris-HCl pH 7.4, 100 mM NaCl, 1 mM EDTA) and once with buffer C (25 mM 4-(2-hydroxyethyl)-1-piperazine-ethanesulfonic acid (HEPES) buffer pH 7.2, 100 mM NaCl, 5 mM MgCl2). Samples were pre-phosphorylated by incubation for 15 minutes at 25° C. in buffer C with 10 μM unlabelled ATP and then washed three times with cold buffer A supplemented with 1 mM sodium ortho-vanadate. Association between the immobilized receptor and the baculovirus-expressed p85 was carried out as previously described (Bardelli, A., et al., Oncogene 7: 1973-1978 (1992)). For the association experiments with the PI 3-kinase holoenzyme three days serum-starved A549 cells (approx. 2×10^6 cells/point) were used as a source of PI 3-kinase. A549 cells were Dounce-homogenized in MOPS buffer (20 mM 3-(N-morpholino)propanesulfonic acid) (pH 7.5), 1 mM MgCl2, 0.1 mM EDTA, 200 mM sucrose, 1 mM sodium ortho-vanadate), supplemented with 0.2 mM phenylmethylsulfonyl fluoride, 1 μg/ml leupeptin, 0.1 TIU/ml aprotinin and 1 μg/ml pepstatin. Homogenates were centrifuged at 100,000×g for 20 minutes at 4° C. When checking for the ability of phosphopeptides to block the association with the receptor, cell lysates were pre-incubated with the phosphopeptides for 1 hour at 4° C. prior to incubation with the immobilized recombinant HGF/SF receptor. Following association, immunocomplexes were washed three times with buffer A, twice with buffer D (0.5M LiCl, 100 mM Tris-HCl pH 7.6), and twice with buffer B.
The presence of the p85 subunit of the PI 3-kinase in the receptor immunoprecipitate was determined by: i) labelling of the receptor and associated proteins with [γ-^32 P]ATP by in vitro kinase assay; ii) Western immunoblotting; iii) PI 3-kinase activity assay.
In vitro kinase assay. Receptor-associated proteins were labelled in 20 μl of buffer C, in the presence of 10 μCi [γ-^32 P]ATP (specific activity 7,000 Ci/Mm; Amersham) at 25° C. for 15 minutes. The reaction was stopped by adding 1 ml of ice-cold Buffer A without protease inhibitors. Samples were washed three times with cold buffer A. The labelled immunocomplexes were eluted from Protein A-Sepharose in boiling Laemmli buffer. […]

[2] = system: N- and C-SH2 domains of p85; assay: BIAcore inhibition of binding of GST-SH2 domains to immobilized PDGF receptor phosphopeptide Y751; parameters: species or system bovine; details: range of phosphopeptide concentrations; 25° C.; FIG. 7
Protocol: FIG. 7. Evaluation of the relative affinities of phosphotyrosine 1313, 1349 and 1356 for the N- and C- SH2 domains of p85. Affinities were determined by biospecific interaction analysis with the BIAcore instrument (Jonsson, U., Fagerstam, L., Roos, H., Ronnberg, J., Sjolander, Stenber, E., Stahlberg, R. Urbaniczky, C., Ostlin, H., and Malmquist. 1991. Surface plasmon reasonance and microfluidics for real time biospecific interaction analysis. Biotechniques 11: 520-527; Jonsson, U. and M. Malmquist. 1992. Real time biospecific analysis. The integration of surface plasmon reasonance detection, general biospecific interface chemistry and microfluidics into one analytical system p. 291-336. In F. Turner (ed), Advances in Biosensors, vol. 2 JAI Press, London; Karlsson, R., Michaelsson, A., and L. Mattsson. 1991. Kinetic analysis of monoclonal antibody-antigen interactions with a new biosensor based analytical system. J. Immunol. Meth. 145: 229-246).
Relative affinities were determined by measuring the ability of the phosphopeptides to inhibit the interaction of the SH2 domains with an immobilized phosphopeptide (DMSKDESVDY*VPMLDMK) (SEQ. ID NO: 26) which includes Y751 in the human PDGF receptor. Panel A and B show the results of these measurements, expressed as % inhibition of binding to phosphopeptide Y751.
GST-SH2 domain fusion proteins. The N- and C-SH2 domains of the bovine PI 3-kinase p85 subunit (amino acids 314-431 and 612-722) were obtained by polymerase chain reaction and cloned into the pGEX-2 bacterial expression vector (Smith, D. B., and Johnson K. S., Gene 67: 31-40 (1988).
Glutathione-S-transferase (GST)-SH2 fusion proteins were purified from bacterial lysates by glutathione affinity chromatography (Panayotou, G., et al. EMBO J., 11: 4261-4272 (1992)). Amino acid analysis on an Applied Biosystems 420A analyzer was used to determine the concentration of the recombinant proteins.
Analysis of the interaction of Y1349 and Y1356 with the p85 N- and C- SH2 domains using the BIAcore. […]

## CC(C)[C@H](NC(=O)[C@H](CS)NC(=O)[C@H](CCCCN)NC(=O)[C@@H](NC(=O)[C@H](CC(N)=O)NC(=O)[C@@H](NC(=O)[C@@H](N)Cc1ccc(OP(=O)(O)O)cc1)C(C)C)C(C)C)C(=O)N[C@@H](C)C(=O)O [H-Tyr*-Val-Asn-Val-Lys-Cys-Val-Ala-OH] (HELM PEPTIDE1{[N[C@@H](Cc1ccc(OP(=O)(O)O)cc1)C(=O)[*:2]].V.N.V.K.C.V.A}$$$$V2.0)
[1]
  Inhibition of binding of p85 to HGF/SF receptor: efficiently outcompeted p85
[2]
  Apparent relative affinity: inhibition of binding of p85 N- and C-SH2 domains to phosphopeptide Y751: inhibit binding of p85 N- and C-SH2 domains to phosphopeptide Y751, but at higher concentrations

## CC(C)[C@H](NC(=O)[C@H](Cc1c[nH]cn1)NC(=O)[C@@H](NC(=O)[C@@H](N)Cc1ccc(OP(=O)(O)O)cc1)C(C)C)C(=O)N[C@@H](CC(N)=O)C(=O)N[C@@H](C)C(=O)N[C@H](C(=O)N[C@@H](Cc1ccc(O)cc1)C(=O)O)[C@@H](C)O [H-Tyr*-Val-His-Val-Asn-Ala-Thr-Tyr-OH] (HELM PEPTIDE1{[N[C@@H](Cc1ccc(OP(=O)(O)O)cc1)C(=O)[*:2]].V.H.V.N.A.T.Y}$$$$V2.0)
[1]
  Inhibition of binding of p85 to HGF/SF receptor: efficiently outcompeted p85
[2]
  Apparent relative affinity: inhibition of binding of p85 N- and C-SH2 domains to phosphopeptide Y751: inhibit binding of p85 N- and C-SH2 domains to phosphopeptide Y751, but at higher concentrations
